Earlier results as cited in patent publication US20020102214A1, “Paramagnetic material-containing magnetic resonance external marker or calibration composition” (NYCOMED IMAGING AS., priority 1996, published 2002).

Conditions: at MRI fields, between 20° C. to 35° C., based on relaxivity data

variation of signal intensity with temperature: about 20%
Compound: O=C([O-])CN(CCN(CC(=O)[O-])CC(=O)O)CCN(CC(=O)[O-])CC(=O)O.[Gd+3] [GdDTPA]
